# Experiment: Release time based on dissolution times of each ingredient in water
# Type: physicochemical
# Conditions: soft chew composition of Table 2
# Description: The release time was determined based on dissolution times of each ingredient in water.
row,SMILES,Release Time
1,"C/C1=C2/[N-][C@H]([C@H](CC(N)=O)[C@@]2(C)CCC(=O)NC[C@@H](C)OP(=O)([O-])O[C@H]2[C@@H](O)[C@@H](n3cnc4cc(C)c(C)cc43)O[C@@H]2CO)[C@]2(C)N=C(/C(C)=C3N=C(/C=C4N=C1[C@@H](CCC(N)=O)C\4(C)C)[C@@H](CCC(N)=O)[C@]\3(C)CC(N)=O)[C@@H](CCC(N)=O)[C@]2(C)CC(N)=O.[CH3-].[Co+3] [Vitamin B12, methylcobalamin]",0 min
2,"CN1c2c(nc(N)[nH]c2=O)NC[C@@H]1CNc1ccc(C(=O)N[C@@H](CCC(=O)O)C(=O)O)cc1.N[C@H]1C(O)O[C@H](CO)[C@@H](O)[C@@H]1O [QUATREFOLIC ™, (6S)-5-methyltetrahydrofolic acid, glucosamine salt]",0 min
3,NCCCC(=O)O [PHARMAGABA ™],0 min
4,N[C@@H](Cc1c[nH]c2ccc(O)cc12)C(=O)O [5-Hydroxytryptophan],0 min
5,"COc1ccc2[nH]cc(CCNC(C)=O)c2c1 [Melatonin, reference compound]",0 min
6,Cc1cc2nc3c(=O)[nH]c(=O)nc-3n(C[C@H](O)[C@H](O)[C@H](O)COP(=O)([O-])O)c2cc1C.[Na+] [Riboflavin 5′-Phosphate Sodium],0 min
7,NCC(=O)[O-].NCC(=O)[O-].[Mg+2] [Magnesium Glycinate],0 min
8,"Cc1ncc(COP(=O)(O)O)c(C=O)c1O.O [Vitamin B6, pyridoxal-5-phosphate monohydrate]",0 min

# — patent publication US20260248765A1, “TIME RELEASE SLEEP AID SYSTEM” (NightWise, LLC, priority 2017, published 2026)
